Broadly, the Ki is a dissociation constant, usually derived from enzyme kinetics or from competition with a known ligand. What is called IC50 is the concentration that gives 50% inhibition. As a reminder, the EC50 is the concentration needed to bring the measured effect to its halfway point. The term AC50 denotes the midpoint of the concentration-response curve, whichever way the signal moves.

Structures are written as SMILES. The source made the active and inactive calls.

Assay [1] has as its target Serine/threonine-protein kinase TBK1 (Homo sapiens, UniProt Q9UHD2). As to the kind of experiment: Navigating the Kinome. Panel member name: TBK1. The assay is classed as functional.
Assay [2] concerns the target Calcium/calmodulin-dependent protein kinase type II subunit alpha (Homo sapiens, UniProt Q9UQM7). As to the kind of experiment: Navigating the Kinome. Panel member name: CAMK2A. The assay is classed as functional.
Assay [3] addresses Platelet-derived growth factor receptor beta (Homo sapiens, UniProt P09619). It counts as functional.
The target in assay [4] is Ribosomal protein S6 kinase alpha-5 (Homo sapiens, UniProt O75582). It counts as functional.
In assay [5] the target is T1, Calpain-2 catalytic subunit (Sus scrofa, UniProt P43367).
T1 sequence (P43367 whole entry): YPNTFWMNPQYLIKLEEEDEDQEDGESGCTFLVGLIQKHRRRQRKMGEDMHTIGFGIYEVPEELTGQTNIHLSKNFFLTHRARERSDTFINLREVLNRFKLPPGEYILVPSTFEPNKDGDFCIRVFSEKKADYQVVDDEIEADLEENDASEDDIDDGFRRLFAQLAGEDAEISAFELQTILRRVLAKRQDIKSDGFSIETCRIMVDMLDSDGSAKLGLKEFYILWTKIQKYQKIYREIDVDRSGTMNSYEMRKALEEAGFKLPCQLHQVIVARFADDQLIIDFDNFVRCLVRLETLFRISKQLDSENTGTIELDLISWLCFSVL
As to the kind of experiment: m-calpain protease blockers, concentration series – biochemical, fluorogenic peptide substrate, dose response (AID 1420). It counts as functional.

Another assay concerns the target T2, Hexokinase HKDC1 (Homo sapiens, UniProt Q2TB90).
T2 sequence (Q2TB90 whole entry): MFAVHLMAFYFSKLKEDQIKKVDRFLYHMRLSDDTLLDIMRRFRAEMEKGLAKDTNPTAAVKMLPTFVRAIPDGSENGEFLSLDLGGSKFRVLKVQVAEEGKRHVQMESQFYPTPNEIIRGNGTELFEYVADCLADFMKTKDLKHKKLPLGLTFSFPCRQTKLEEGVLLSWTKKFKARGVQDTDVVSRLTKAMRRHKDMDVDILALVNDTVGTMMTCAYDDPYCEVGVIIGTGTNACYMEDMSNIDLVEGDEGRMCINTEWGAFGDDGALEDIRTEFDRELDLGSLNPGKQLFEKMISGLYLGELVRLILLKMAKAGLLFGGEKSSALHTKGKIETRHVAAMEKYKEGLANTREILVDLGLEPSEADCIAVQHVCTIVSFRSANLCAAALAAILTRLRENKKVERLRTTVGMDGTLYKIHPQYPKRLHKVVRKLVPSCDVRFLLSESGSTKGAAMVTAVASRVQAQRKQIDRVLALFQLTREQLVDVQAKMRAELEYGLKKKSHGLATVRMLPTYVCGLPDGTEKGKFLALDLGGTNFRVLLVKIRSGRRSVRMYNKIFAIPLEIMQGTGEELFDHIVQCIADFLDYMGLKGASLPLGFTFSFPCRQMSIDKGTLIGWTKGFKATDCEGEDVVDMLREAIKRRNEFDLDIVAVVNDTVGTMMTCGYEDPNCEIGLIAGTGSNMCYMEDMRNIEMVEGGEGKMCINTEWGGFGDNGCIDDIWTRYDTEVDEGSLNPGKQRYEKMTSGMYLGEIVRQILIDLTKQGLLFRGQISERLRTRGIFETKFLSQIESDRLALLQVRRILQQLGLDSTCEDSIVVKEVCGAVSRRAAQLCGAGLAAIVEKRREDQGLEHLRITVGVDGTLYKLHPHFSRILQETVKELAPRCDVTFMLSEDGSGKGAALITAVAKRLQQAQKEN
As to the kind of experiment: activation of HKDC1 glucose phosphorylation – biochemical, W721R variant, dose response (AID 504730). It counts as functional.

The nature of assay [6]: alpha-synuclein stem-loop luciferase translation blockers – H4 neuroglioma cells, luminescence, confirmation (AID 1988). It counts as functional, cell-based.
Assay [7] addresses Glycogen synthase kinase-3 beta (Homo sapiens, UniProt P49841). The assay is classed as functional.
In assay [8] the target is Tyrosine-protein kinase Lck (Homo sapiens, UniProt P06239). It counts as functional.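 Further: lck was assayed as one member of a kinase panel.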
Sequence of Tyrosine-protein kinase Lck (P06239 whole entry): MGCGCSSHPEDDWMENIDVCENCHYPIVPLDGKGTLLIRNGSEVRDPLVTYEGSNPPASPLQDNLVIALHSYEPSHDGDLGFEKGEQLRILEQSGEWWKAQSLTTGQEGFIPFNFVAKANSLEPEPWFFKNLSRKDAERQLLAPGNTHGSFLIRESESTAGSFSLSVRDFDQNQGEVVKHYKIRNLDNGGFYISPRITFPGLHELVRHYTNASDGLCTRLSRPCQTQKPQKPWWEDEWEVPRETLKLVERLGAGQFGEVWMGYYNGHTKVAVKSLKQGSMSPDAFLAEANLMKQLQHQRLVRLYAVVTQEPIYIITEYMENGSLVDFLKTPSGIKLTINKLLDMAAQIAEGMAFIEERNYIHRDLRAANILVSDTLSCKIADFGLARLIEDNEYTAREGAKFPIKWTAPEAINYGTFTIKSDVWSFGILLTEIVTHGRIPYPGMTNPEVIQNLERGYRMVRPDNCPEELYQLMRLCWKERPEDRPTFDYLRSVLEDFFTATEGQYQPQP
In assay [9] the target is High affinity nerve growth factor receptor (Homo sapiens, UniProt P04629). It counts as functional.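 Further: NTRK1 tested as one member of a kinome-wide profiling panel.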
The target of assay [10] is Serine/threonine-protein kinase Chk2 (Homo sapiens, UniProt O96017). The assay is classed as functional.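 Further: CHEK2 entry within a kinome-wide screening panel.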
Sequence of Serine/threonine-protein kinase Chk2 (O96017 whole entry): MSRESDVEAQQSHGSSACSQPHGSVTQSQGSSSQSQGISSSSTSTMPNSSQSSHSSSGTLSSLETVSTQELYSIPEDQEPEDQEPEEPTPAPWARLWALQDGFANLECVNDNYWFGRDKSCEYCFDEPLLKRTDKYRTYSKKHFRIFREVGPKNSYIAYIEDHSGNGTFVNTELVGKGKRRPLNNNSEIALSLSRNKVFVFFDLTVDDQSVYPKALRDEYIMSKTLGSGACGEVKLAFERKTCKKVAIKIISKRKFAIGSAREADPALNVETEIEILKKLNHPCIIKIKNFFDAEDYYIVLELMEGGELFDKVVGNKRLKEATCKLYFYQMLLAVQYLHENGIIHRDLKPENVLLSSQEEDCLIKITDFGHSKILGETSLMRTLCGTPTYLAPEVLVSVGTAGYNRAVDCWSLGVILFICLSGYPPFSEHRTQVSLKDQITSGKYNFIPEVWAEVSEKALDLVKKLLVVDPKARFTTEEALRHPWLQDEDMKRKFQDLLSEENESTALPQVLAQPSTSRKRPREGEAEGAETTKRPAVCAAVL
Assay [11] has as its target Proto-oncogene tyrosine-protein kinase receptor Ret (Homo sapiens, UniProt P07949). The assay is classed as functional.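 Further: measured within a kinome-wide profiling panel, RET as the panel member.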
The target in the next assay is Beta Lactamase (Pseudomonas aeruginosa, UniProt Q932Y6). As to the kind of experiment: BLA reporter interference, concentration series – BLA reporter cells, FRET fluorescence, artefact control for NOD2-RIPK2 interaction inhibitor project, dose response (AID 651552). The assay is classed as functional, cell-based.
Sequence of Beta Lactamase (Q932Y6 whole entry): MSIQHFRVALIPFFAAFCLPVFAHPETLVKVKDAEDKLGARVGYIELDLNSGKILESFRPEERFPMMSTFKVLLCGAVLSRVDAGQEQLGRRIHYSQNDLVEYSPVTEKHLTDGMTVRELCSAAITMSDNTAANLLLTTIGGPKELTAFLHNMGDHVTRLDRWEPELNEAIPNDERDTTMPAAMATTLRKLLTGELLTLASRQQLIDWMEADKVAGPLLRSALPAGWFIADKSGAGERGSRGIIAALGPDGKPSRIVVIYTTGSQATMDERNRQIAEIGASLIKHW
In assay [12] the target is T3, Sphingosine 1-phosphate receptor 4 (Homo sapiens, UniProt O95977).
T3 sequence (O95977 whole entry): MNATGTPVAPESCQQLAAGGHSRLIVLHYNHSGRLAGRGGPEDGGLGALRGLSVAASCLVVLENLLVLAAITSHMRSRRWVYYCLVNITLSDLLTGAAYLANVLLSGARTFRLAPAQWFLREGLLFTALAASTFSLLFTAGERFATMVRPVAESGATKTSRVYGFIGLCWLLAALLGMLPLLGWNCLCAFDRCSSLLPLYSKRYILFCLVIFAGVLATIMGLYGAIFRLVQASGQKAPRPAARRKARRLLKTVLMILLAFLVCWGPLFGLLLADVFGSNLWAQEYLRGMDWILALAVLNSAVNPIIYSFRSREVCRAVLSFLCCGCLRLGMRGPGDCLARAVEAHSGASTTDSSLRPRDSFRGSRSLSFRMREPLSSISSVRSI
As to the kind of experiment: Fluorescence dose response cell-based high throughput screening assay for antagonists of the Sphingosine 1-Phosphate Receptor 4 (S1P4). [Related pubchem assays: 1524 (Confirmation in triplicates.), 1510 (Primary screen.)]. It counts as functional.

Assay [13] is described as follows: blockers of HIV-1 envelope-mediated cell-cell fusion – cherry-pick, dose response (AID 652057). The assay is classed as functional, cell-based.
Assay [14] in a line: HIV-1 AD8 envelope cell-cell fusion blockers – cherry-pick, dose response (AID 652062).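 Further: luciferase signal from cell-cell fusion driven by HIV-1 clade B AD8 Env; potency is for inhibitors of fusion seen as a drop in luminescence.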 It counts as functional, cell-based.
In assay [15] the target is T4, Tyrosyl-DNA phosphodiesterase 2 (Homo sapiens, UniProt O95551).
T4 sequence (O95551 whole entry): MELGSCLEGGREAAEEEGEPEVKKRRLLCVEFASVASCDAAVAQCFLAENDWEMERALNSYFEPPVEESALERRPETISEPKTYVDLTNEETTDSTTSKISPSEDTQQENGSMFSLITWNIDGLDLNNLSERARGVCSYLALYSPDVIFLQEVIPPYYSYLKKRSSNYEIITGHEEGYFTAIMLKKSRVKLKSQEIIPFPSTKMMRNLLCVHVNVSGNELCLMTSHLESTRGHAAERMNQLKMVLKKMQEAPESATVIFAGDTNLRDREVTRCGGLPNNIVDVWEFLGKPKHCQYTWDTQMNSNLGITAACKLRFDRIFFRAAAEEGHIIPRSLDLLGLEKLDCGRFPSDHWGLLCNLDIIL
The assay can be described thus: potency against TDP2 phosphodiesterase activity – biochemical, epi absorbance, IC50, dose response (AID 743297).

Sequence of Glycogen synthase kinase-3 beta (P49841 whole entry): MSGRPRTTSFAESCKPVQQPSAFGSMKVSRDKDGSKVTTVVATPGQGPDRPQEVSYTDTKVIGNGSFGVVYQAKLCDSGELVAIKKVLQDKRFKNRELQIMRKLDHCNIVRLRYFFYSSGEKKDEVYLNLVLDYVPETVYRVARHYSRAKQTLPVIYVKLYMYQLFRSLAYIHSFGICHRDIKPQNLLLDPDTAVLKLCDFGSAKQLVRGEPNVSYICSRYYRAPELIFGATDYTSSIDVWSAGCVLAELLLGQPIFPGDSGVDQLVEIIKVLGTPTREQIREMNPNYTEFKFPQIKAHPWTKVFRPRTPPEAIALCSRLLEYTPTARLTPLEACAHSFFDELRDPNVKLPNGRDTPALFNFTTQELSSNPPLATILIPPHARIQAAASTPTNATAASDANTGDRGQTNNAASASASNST
Sequence of Platelet-derived growth factor receptor beta (P09619 whole entry): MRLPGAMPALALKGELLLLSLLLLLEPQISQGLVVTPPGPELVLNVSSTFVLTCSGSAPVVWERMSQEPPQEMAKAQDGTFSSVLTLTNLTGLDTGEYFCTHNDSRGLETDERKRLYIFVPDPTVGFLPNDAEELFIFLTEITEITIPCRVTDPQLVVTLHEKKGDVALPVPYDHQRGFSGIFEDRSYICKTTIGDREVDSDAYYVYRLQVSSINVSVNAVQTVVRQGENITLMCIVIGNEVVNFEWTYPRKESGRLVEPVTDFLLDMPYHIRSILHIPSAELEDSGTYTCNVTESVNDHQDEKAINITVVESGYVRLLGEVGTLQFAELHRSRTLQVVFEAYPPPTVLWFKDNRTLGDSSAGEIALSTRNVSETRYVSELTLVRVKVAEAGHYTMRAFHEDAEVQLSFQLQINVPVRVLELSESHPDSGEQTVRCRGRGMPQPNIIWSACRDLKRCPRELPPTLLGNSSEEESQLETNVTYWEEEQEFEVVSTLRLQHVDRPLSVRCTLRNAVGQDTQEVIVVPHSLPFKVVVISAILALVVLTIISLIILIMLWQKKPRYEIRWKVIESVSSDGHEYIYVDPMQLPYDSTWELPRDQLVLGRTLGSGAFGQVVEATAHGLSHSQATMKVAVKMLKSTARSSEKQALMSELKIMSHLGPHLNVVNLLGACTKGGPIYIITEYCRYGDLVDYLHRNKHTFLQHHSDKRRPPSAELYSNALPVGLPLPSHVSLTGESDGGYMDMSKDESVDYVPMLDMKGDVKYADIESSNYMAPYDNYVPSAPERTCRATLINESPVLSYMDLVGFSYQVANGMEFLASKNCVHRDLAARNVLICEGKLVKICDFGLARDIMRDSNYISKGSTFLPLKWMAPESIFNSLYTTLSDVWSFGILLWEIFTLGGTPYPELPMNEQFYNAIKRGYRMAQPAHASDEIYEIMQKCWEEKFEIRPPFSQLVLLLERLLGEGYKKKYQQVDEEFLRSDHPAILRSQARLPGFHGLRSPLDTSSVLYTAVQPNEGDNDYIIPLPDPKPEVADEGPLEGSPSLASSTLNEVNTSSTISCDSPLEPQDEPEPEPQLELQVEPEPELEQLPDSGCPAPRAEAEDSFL
Sequence of Calcium/calmodulin-dependent protein kinase type II subunit alpha (Q9UQM7 whole entry): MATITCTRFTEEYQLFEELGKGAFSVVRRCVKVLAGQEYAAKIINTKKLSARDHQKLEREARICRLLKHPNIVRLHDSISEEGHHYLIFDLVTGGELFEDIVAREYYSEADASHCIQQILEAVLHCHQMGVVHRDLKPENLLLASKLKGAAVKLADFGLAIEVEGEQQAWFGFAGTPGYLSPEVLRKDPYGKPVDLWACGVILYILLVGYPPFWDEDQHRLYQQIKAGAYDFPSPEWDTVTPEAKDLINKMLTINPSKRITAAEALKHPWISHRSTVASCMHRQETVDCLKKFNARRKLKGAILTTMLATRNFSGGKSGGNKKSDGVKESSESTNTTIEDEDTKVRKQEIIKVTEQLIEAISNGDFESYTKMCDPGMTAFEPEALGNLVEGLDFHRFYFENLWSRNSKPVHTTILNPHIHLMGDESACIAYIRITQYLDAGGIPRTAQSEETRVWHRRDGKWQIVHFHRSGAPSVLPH
Sequence of Proto-oncogene tyrosine-protein kinase receptor Ret (P07949 whole entry): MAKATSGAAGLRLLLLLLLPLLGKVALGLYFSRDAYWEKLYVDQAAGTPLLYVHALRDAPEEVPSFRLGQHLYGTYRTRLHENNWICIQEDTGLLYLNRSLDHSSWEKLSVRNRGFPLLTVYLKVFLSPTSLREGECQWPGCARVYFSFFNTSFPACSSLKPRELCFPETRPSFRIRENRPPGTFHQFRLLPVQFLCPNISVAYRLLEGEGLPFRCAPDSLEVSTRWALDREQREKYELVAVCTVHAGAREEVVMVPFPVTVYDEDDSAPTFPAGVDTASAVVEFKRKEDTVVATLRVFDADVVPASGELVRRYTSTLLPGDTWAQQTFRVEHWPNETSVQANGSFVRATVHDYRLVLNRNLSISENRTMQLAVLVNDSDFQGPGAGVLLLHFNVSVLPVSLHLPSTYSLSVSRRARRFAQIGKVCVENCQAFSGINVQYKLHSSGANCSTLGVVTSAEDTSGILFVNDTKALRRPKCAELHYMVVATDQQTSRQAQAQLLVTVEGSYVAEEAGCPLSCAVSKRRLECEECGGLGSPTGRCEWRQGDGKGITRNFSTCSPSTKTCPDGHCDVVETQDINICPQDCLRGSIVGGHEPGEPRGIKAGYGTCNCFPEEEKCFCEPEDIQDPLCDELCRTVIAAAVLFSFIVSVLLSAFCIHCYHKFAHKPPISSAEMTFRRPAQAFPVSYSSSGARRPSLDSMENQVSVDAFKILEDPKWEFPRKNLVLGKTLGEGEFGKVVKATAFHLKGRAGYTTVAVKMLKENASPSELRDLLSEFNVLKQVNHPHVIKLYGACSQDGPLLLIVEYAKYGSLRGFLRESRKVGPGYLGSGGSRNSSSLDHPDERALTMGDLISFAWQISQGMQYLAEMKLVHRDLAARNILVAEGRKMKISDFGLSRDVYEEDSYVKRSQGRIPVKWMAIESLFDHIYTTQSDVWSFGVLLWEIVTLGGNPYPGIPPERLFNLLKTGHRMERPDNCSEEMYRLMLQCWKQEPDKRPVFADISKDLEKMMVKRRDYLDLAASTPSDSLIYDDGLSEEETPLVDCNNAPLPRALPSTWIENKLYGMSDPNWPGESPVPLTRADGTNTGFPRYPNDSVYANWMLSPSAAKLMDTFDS

`COc1cc2c(cc1F)C(c1ccccc1Cl)=Nc1c(n[nH]c1C)N2` [RG-1530]: the Ki in [1] is > 2.51 µM (inactive); in assay [2] it was > 6.31 µM (inactive); in assay [3], 0.0501 µM (active); in assay [4], > 2 µM (inactive).

Take `O=C(O)c1ccc(NC2=C(Cl)C(=O)c3ccccc3C2=O)cc1`: in assay [5], the IC50 is reported as 10.8 µM (not active). Further, the EC50 at Hexokinase HKDC1 was 5.62 µM (active).

In the case of `O=C(O)c1ccc2c3c(ncnc13)-c1ccccc1C2=O`, the EC50 in assay [6] is 2.45 µM (active).

Consider `Cc1nn(C)c2sc3c(=O)[nH]cnc3c12`, for which the Ki in assay [7] was 39.8 µM (active).

`Cc1ccc2nccc(NC(=O)Nc3cccc(C(F)(F)F)n3)c2c1`: the Ki is > 2.51 µM (inactive) in [8], > 2.51 µM (inactive) in assay [9], > 1.58 µM (inactive) in assay [10] and > 2 µM (inactive) in assay [11].

On to `COC(=O)CCS(=O)(=O)c1nc(-c2ccccc2)cc(C(F)(F)F)n1`, for which the IC50 at Beta Lactamase was 16.4 µM (inactive); in [12], 1.34 µM (active).

With `CCOC(=O)c1c2c(n(Cc3ccccc3)c1C)C(=O)C(=O)c1ccccc1-2`, the AC50 in assay [13] is 6.28 µM (active); in assay [14], 10.6 µM (active). For the same compound, in assay [15], the IC50 was 4.78 µM (active).
